Results reported in PubChem BioAssay AID192 (DTP/NCI, 2004).
“And” between values parts separate entries of the source, which are not always exact repeats. Identical values can stand only once. Toxic doses and inconclusive results are not listed. The calls were made as follows: active = survival T/C of 150% or more; inactive = T/C below 125% in these data.

Test system: BDF1 mice, B16 melanoma ip, median survival T/C
Assay: NCI In Vivo Anticancer Drug Screen. Data for tumor model B16 Melanoma (intraperitoneal) in B6D2F1 (BDF1) mice
Conditions: endpoint: median survival time, higher = longer survival
How it was run: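 The ratio T/C compares compound-treated mice with vehicle-treated controls, using survival or tumor size as the endpoint in a transplantable tumor model.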

[1] = dose: 50.0 mg/kg/injection, schedule: Q01DX009 (ip), vehicle: saline with Tween-80
[2] = dose: 100.0 mg/kg/injection, schedule: Q01DX009 (ip), vehicle: Klucel (hydroxypropylcellulose) (HPC)
[3] = dose: 200.0 mg/kg/injection, schedule: Q01DX009 (ip), vehicle: Klucel (hydroxypropylcellulose) (HPC)
[4] = dose: 12.5 mg/kg/injection, schedule: Q01DX009 (ip), vehicle: saline
[5] = dose: 25.0 mg/kg/injection, schedule: Q01DX009 (ip), vehicle: saline
[6] = dose: 50.0 mg/kg/injection, schedule: Q01DX009 (ip), vehicle: saline
[7] = dose: 100.0 mg/kg/injection, schedule: Q01DX009 (ip), vehicle: saline
[8] = dose: 12.5 mg/kg/injection, schedule: Q01DX009 (ip), vehicle: saline with Tween-80
[9] = dose: 25.0 mg/kg/injection, schedule: Q01DX009 (ip), vehicle: saline with Tween-80
[10] = dose: 50.0 mg/kg/injection, schedule: Q01DX009 (ip), vehicle: Klucel (hydroxypropylcellulose) (HPC)
[11] = dose: 20.0 mg/kg/injection, schedule: Q01DX009 (ip), vehicle: saline with Tween-80
[12] = dose: 25.0 mg/kg/injection, schedule: Q01DX009 (ip), vehicle: Klucel (hydroxypropylcellulose) (HPC)
[13] = dose: 400.0 mg/kg/injection, schedule: Q01DX009 (ip), vehicle: Klucel (hydroxypropylcellulose) (HPC)

Measured: T/C

O=C(O)C1=CCC=CC1
inactive: dose: 100.0 mg/kg/injection, schedule: Q04DX003 (ip), vehicle: saline with Tween-80 100 % of control | dose: 200.0 mg/kg/injection, schedule: Q04DX003 (ip), vehicle: saline with Tween-80 103 % of control | dose: 400.0 mg/kg/injection, schedule: Q04DX003 (ip), vehicle: saline with Tween-80 96 % of control

Cc1ccccc1OCC(O)CO (stereo not given)
inactive: [1] 92 % of control | dose: 100.0 mg/kg/injection, schedule: Q01DX009 (ip), vehicle: saline with Tween-80 110 % of control | dose: 200.0 mg/kg/injection, schedule: Q01DX009 (ip), vehicle: saline with Tween-80 110 % of control | dose: 400.0 mg/kg/injection, schedule: Q01DX009 (ip), vehicle: saline with Tween-80 105 % of control

COc1ccc(NC(=O)Nc2ccccc2F)cc1
inactive: [2] 97 % of control | [3] 97 % of control

CC1=C(CCC(=O)O)c2cc3nc(cc4[nH]c(cc4C)cc4[nH]c(cc1n2)cc4C)C(C)(C)C3CCC(=O)O (stereo not given)
inactive: dose: 3.0 mg/kg/injection, schedule: Q01DX009 (ip), vehicle: Klucel (hydroxypropylcellulose) (HPC) 109 % of control | dose: 6.0 mg/kg/injection, schedule: Q01DX009 (ip), vehicle: Klucel (hydroxypropylcellulose) (HPC) 101 % of control | dose: 12.0 mg/kg/injection, schedule: Q01DX009 (ip), vehicle: Klucel (hydroxypropylcellulose) (HPC) 90 % of control | dose: 24.0 mg/kg/injection, schedule: Q01DX009 (ip), vehicle: Klucel (hydroxypropylcellulose) (HPC) 104 % of control

CN(C)C1=NC(=O)C(c2ccccc2)O1 (stereo not given)
inactive: [4] 117 % of control | [5] 105 % of control | [6] 111 % of control | [7] 114 % of control

Cc1c(N)nc(C(CC(N)=O)NCC(N)C(N)=O)nc1C(=O)NC(C(=O)NC(C)C(O)C(C)C(=O)NC(C(=O)NCCc1nc(-c2nc(C(=O)NCCC[S+](C)C)cs2)cs1)C(C)O)C(OC1OC(CO)C(O)C(O)C1OC1OC(CO)C(O)C(OC(N)=O)C1O)c1cnc[nH]1 (stereo not given)
inactive: dose: 3.9 mg/kg/injection, schedule: Q01DX009 (ip), vehicle: saline 107 % of control | dose: 7.8 mg/kg/injection, schedule: Q01DX009 (ip), vehicle: saline 105 % of control | dose: 15.6 mg/kg/injection, schedule: Q01DX009 (ip), vehicle: saline 99 % of control

Cc1cccc(C)c1C1=NCCN1
inactive: [8] 95 % of control | [9] 95 % of control | [1] 93 % of control

CC[N+](CC)(CC)CCC[n+]1ccc(/C=N\O)cc1
inactive: [5] 111 % of control | [6] 111 % of control | [7] 111 % of control

O=C(O)C1c2ccccc2Cc2ccccc21
inactive: dose: 37.5 mg/kg/injection, schedule: Q04DX003 (ip), vehicle: Klucel (hydroxypropylcellulose) (HPC) 122 % of control | [10] 97 % of control | dose: 75.0 mg/kg/injection, schedule: Q04DX003 (ip), vehicle: Klucel (hydroxypropylcellulose) (HPC) 119 % of control | [2] 100 % of control | dose: 150.0 mg/kg/injection, schedule: Q04DX003 (ip), vehicle: Klucel (hydroxypropylcellulose) (HPC) 119 % of control | [3] 105 % of control

COC(=O)c1n[nH]c(C(C)C)c1N=NN(C)C
inactive: dose: 37.5 mg/kg/injection, schedule: Q01DX009 (ip), vehicle: saline with Tween-80 110 % of control | dose: 75.0 mg/kg/injection, schedule: Q01DX009 (ip), vehicle: saline with Tween-80 115 % of control

[Cl][Pt+2][Cl].[NH-]c1cc2ccccc2cc1[NH-]
inactive: [11] 113 % of control | dose: 40.0 mg/kg/injection, schedule: Q01DX009 (ip), vehicle: saline with Tween-80 122 % of control | dose: 80.0 mg/kg/injection, schedule: Q01DX009 (ip), vehicle: saline with Tween-80 120 % of control | dose: 160.0 mg/kg/injection, schedule: Q01DX009 (ip), vehicle: saline with Tween-80 87 % of control | dose: 320.0 mg/kg/injection, schedule: Q01DX009 (ip), vehicle: saline with Tween-80 118 % of control

CNC(=O)Nc1ccc(Cl)cc1C
inactive: [12] 95 % of control | [10] 97 % of control | [2] 92 % of control and 121 % of control

COC(=O)[C@H]1[C@H]2C[C@@H]3c4[nH]c5ccccc5c4CCN3C[C@H]2C[C@@H](OC(=O)c2cc(OC)c(OC)c(OC)c2)[C@@H]1OC
inactive: dose: 3.0 micrograms/kg/injection, schedule: Q01DX009 (ip), vehicle: saline 90 % of control | dose: 6.0 micrograms/kg/injection, schedule: Q01DX009 (ip), vehicle: saline 98 % of control | dose: 13.0 micrograms/kg/injection, schedule: Q01DX009 (ip), vehicle: saline 95 % of control | dose: 27.0 micrograms/kg/injection, schedule: Q01DX009 (ip), vehicle: saline 95 % of control | dose: 55.0 micrograms/kg/injection, schedule: Q01DX009 (ip), vehicle: saline 86 % of control

C=CC1CC[N-]CC1.C=CC1CC[N-]CC1.C=CC1CC[N-]CC1.[Cl][Cr]([Cl])[Cl]
inactive: dose: 8.0 mg/kg/injection, schedule: Q04DX003 (ip), vehicle: saline with Tween-80 97 % of control | dose: 12.0 mg/kg/injection, schedule: Q04DX003 (ip), vehicle: saline with Tween-80 102 % of control | [8] 95 % of control | dose: 18.0 mg/kg/injection, schedule: Q04DX003 (ip), vehicle: saline with Tween-80 105 % of control | [9] 95 % of control | dose: 25.0 mg/kg/injection, schedule: Q04DX003 (ip), vehicle: saline with Tween-80 121 % of control | [1] 102 % of control | dose: 50.0 mg/kg/injection, schedule: Q04DX003 (ip), vehicle: saline with Tween-80 113 % of control

CCCCC(=O)N(c1ccc(Nc2c3ccccc3nc3cc([N+](=O)[O-])ccc23)cc1)S(C)(=O)=O
inactive: dose: 3.8 mg/kg/injection, schedule: Q01DX009 (ip), vehicle: saline with Tween-80 102 % of control | dose: 12.5 mg/kg/injection, schedule: Q01DX001 (ip), vehicle: saline with Tween-80 122 % of control | dose: 15.0 mg/kg/injection, schedule: Q01DX009 (ip), vehicle: saline with Tween-80 120 % of control

CCOc1ccc2nc(Cl)sc2c1
inactive: dose: 100.0 mg/kg/injection, schedule: Q04DX003 (ip), vehicle: Klucel (hydroxypropylcellulose) (HPC) 105 % of control

O=C(C1CO1)C(Cl)(Cl)Cl (stereo not given)
inactive: [4] 105 % of control | [5] 110 % of control

CCCCCCCCSC1=C(Cl)C(=O)C(OC)=C(OC)C1=O
inactive: dose: 3.13 mg/kg/injection, schedule: Q01DX009 (ip), vehicle: saline with Tween-80 88 % of control

CC1(C)CC(O)(Cc2ccccc2)C(=O)c2ccccc21 (stereo not given)
inactive: [10] 94 % of control | [2] 94 % of control | [3] 99 % of control | [13] 97 % of control

COc1cccc2c1C(=O)c1c(O)c3c(c(O)c1C2=O)C[C@@](O)(C(=O)CO)C[C@@H]3OC1CC([N+](C)(C)C)C(O)C(C)O1 (stereo not given in full)
inactive: dose: 4.32 mg/kg/injection, schedule: Q04DX003 (ip), vehicle: water 108 % of control and 110 % of control | dose: 6.48 mg/kg/injection, schedule: Q01DX001 (ip), vehicle: water 107 % of control and 119 % of control | dose: 7.2 mg/kg/injection, schedule: Q04DX003 (ip), vehicle: water 116 % of control and 119 % of control | dose: 10.8 mg/kg/injection, schedule: Q01DX001 (ip), vehicle: water 103 % of control and 123 % of control | dose: 12.0 mg/kg/injection, schedule: Q04DX003 (ip), vehicle: water 108 % of control and 112 % of control | dose: 18.0 mg/kg/injection, schedule: Q01DX001 (ip), vehicle: water 105 % of control | dose: 20.0 mg/kg/injection, schedule: Q04DX003 (ip), vehicle: water 107 % of control | dose: 30.0 mg/kg/injection, schedule: Q01DX001 (ip), vehicle: water 102 % of control and 113 % of control

CCOC(=O)CN1CCC(C2(c3cc4ccccc4[nH]3)OCCO2)CC1
inactive: [10] 105 % of control | [2] 93 % of control | [3] 99 % of control

C[n+]1ccccc1/C=C/c1cccc([N+](=O)[O-])c1
inactive: dose: 5.0 mg/kg/injection, schedule: Q01DX009 (ip), vehicle: saline with Tween-80 110 % of control | dose: 5.0 mg/kg/injection, schedule: Q04DX003 (ip), vehicle: saline with Tween-80 105 % of control | dose: 10.0 mg/kg/injection, schedule: Q01DX009 (ip), vehicle: saline with Tween-80 100 % of control | [11] 100 % of control | dose: 20.0 mg/kg/injection, schedule: Q04DX003 (ip), vehicle: saline with Tween-80 89 % of control

NC1=NC(=O)N2CC12 (stereo not given)
inactive: [4] 100 % of control | [5] 103 % of control | [6] 105 % of control | [7] 103 % of control

Cc1cccc(C)c1NS(=O)(=O)c1ccc(Cl)cc1
inactive: [12] 99 % of control | [10] 97 % of control | [2] 99 % of control and 104 % of control | [13] 116 % of control
